Test results as given in ChEMBL document CHEMBL1158699, “Bioactive benzophenones from Garcinia xanthochymus fruits” (J Nat Prod, 2005).
Activity calls are given as the source filed them. The rule behind the calls is not given here.

Key:
[1] = tested on: Radical scavenging activity; assay: Antioxidant activity assessed as DPPH radical scavenging activity; assay type: functional
SW480 = assay: Cytotoxicity against human SW480 cells after 72 hrs by MTT assay; assay type: functional, cell-based; settings: SW480, 72 h

Compound | IC50 [1] [µM] | IC50 (SW480) [µM] | Activity [1]
O=c1cc(-c2ccc(O)c(-c3c(O)cc(O)c4c(=O)cc(-c5ccc(O)cc5)oc34)c2)oc2cc(O)cc(O)c12 [AMENTOFLAVONE] | 184 | 111 | –
O=c1c(-c2c(O)cc(O)c3c(=O)cc(-c4ccc(O)cc4)oc23)c(-c2ccc(O)cc2)oc2cc(O)cc(O)c12 | > 400 | 185 | –
COc1cc2c(=O)c3c(O)cc(O)cc3oc2cc1O [ALLOATHYRIOL] | – | 117 | inactive

Further lines, with some results ahead:

IC50 [1] [µM] | Compound | IC50 (SW480) [µM] | Activity [1]
116 | O=C1c2c(O)cc(O)cc2OC(c2ccc(O)cc2)C1c1c(O[C@@H]2O[C@H](CO)[C@@H](O)[C@H](O)[C@H]2O)cc(O)c2c(=O)cc(-c3ccc(O)c(O)c3)oc12 (mixture of isomers) | > 200 | –
62 | O=C1c2c(O)cc(O)cc2OC(c2ccc(O)cc2)C1c1c(O)cc(O)c2c(=O)cc(-c3ccc(O)c(O)c3)oc12 (racemic) | 89 | –
